Converted amounts (≈) assume the structure as drawn. Read-outs that look alike come from different tables or passages of the source.

These results are taken from US9730944B2, “Antiviral activity of novel bicyclic heterocycles” (priority 2010, dated 2017).

One series concerns HIV-1 strain IIIB. Nature of the series: Inhibition of replication of HIV-1 (IIIB strain) in MT-4 cells, MTT assay. The settings on record: MT-4 cells, MTT assay, five days after infection, 50% protection from cytopathic effect, read-out: EC50 (μM) HIV-1 (IIIB). Type of series: cell-based.
Series [1] is described as follows: in vitro. Particulars: African green monkey, PV CC50.
The test system of the next series is HIV-2 strain (ROD). Nature of the series: Inhibition of replication of HIV-2 (ROD strain) in MT-4 cells, MTT assay. The class given is cell-based. Particulars: Human immunodeficiency virus 2, MT4, 120 h; MT-4 cells, MTT assay, five days after infection, 50% protection from cytopathic effect; read-out: EC50 (μM) HIV-2 (ROD). (Formazan colour is commonly taken as a measure of viable cells.)

A further series has as its system poliovirus (PV type 2). Description: microbe, parasite or virus in culture. Type of series: cell-based. The settings on record: Enterovirus C, read-out: PV-2 EC50.
A further series concerns poliovirus (PV type 3). Description: microbe, parasite or virus in culture. Type of series: cell-based. Particulars: Enterovirus C, read-out: PV-3 EC50.
Series [2] can be described thus: in vitro. The settings on record: human.
The nature of series [3]: in vitro. Particulars: human, PV CC50.
The test system of the next series is poliovirus (PV type 1). Description: microbe, parasite or virus in culture. The class given is cell-based. The settings on record: Enterovirus C, read-out: PV-1 EC50.
The next series concerns Hela H cells. The settings on record: human.
The next series concerns Vero cells. The settings on record: African green monkey.
Series [4] can be described thus: Cytotoxicity reported with the coxsackievirus (CVA9) assay. Particulars: African green monkey.
The next series deals with hRV-72. Nature of the series: Rhinovirus type 72 antiviral assay in Hela Rh cells, MTS readout. Type of series: cell-based, Human rhinovirus.
The next series deals with hRV-2. Description: Rhinovirus type 2 antiviral assay in Hela Rh cells, MTS readout. The class given is cell-based, Human rhinovirus.
A further series has as its system hRV-29. Description: Rhinovirus type 29 antiviral assay in Hela Rh cells, MTS readout. The settings on record: Human rhinovirus sp., HRV29, HeLa Rh, methodology of example 451; read-out: EC50 (μg/ml) hRV-29. The class given is cell-based.
The next series relates to hRV-45. Description: Rhinovirus type 45 antiviral assay in Hela Rh cells, MTS readout. Type of series: cell-based, Human rhinovirus.
The test system of series [5] is Enteric Cytopathic Human Orphan virus (ECHO11). Nature of the series: organism not typed. The class given is cell-based. Particulars: BGM, read-out: EC50 (ECHO virus).
The test system of another series is hRV-63. Description: Rhinovirus type 63 antiviral assay in Hela Rh cells, MTS readout. Type of series: cell-based, Human rhinovirus.
A further series has as its system hRV-14. Nature of the series: Rhinovirus type 14 antiviral assay in Hela Rh cells, MTS readout. Type of series: cell-based, Human rhinovirus.
For a further series, the system named is hRV-59. Description: Rhinovirus type 59 antiviral assay in Hela Rh cells, MTS readout. Particulars: Human rhinovirus sp., HRV59, HeLa Rh; methodology of example 451; read-out: EC50 (μg/ml) hRV-59. The class given is cell-based.
For a further series, the system named is hRV-85. Description: Rhinovirus type 85 antiviral assay in Hela Rh cells, MTS readout. The class given is cell-based, Human rhinovirus.
The test system of the next series is hRV-9. Nature of the series: Rhinovirus type 9 antiviral assay in Hela Rh cells, MTS readout. Type of series: cell-based, Human rhinovirus.
The nature of series [6]: Cytostatic/cytotoxic effect in Hela Rh cells (rhinovirus methodology, MTS). The settings on record: human, CC50 (μg/ml), rhinovirus methodology of example 451.
In a further series the test system is coxsackie virus (CVA9). Nature of the series: Coxsackievirus (CVA9) antiviral assay in BGM cells. The class given is cell-based. Particulars: Enterovirus B.
The subject of the next series is hRV-41. Nature of the series: Rhinovirus type 41 antiviral assay in Hela Rh cells, MTS readout. Type of series: cell-based, Human rhinovirus.
Series [7] in a line: Cytotoxicity in RD cells (enterovirus methodology). Particulars: human.
In another series the test system is hRV-86. Nature of the series: Rhinovirus type 86 antiviral assay in Hela Rh cells, MTS readout. The class given is cell-based, Human rhinovirus.
The subject of a further series is hRV-15. Description: Rhinovirus type 15 antiviral assay in Hela Rh cells, MTS readout. The class given is cell-based, Human rhinovirus.
The subject of the next series is hRV-42. Description: Rhinovirus type 42 antiviral assay in Hela Rh cells, MTS readout. Type of series: cell-based, Human rhinovirus.
The test system of another series is enterovirus (EV71). Nature of the series: Enterovirus (EV71) antiviral assay in RD cells. The class given is cell-based.
The subject of another series is hRV-89. Description: Rhinovirus type 89 antiviral assay in Hela Rh cells, MTS readout. Type of series: cell-based, Human rhinovirus. The settings on record: Rhinovirus A, HRV89, HeLa Rh; methodology of example 451; read-out: EC50 (μg/ml) hRV-89.
The test system of another series is hRV-39. Description: Rhinovirus type 39 antiviral assay in Hela Rh cells, MTS readout. Type of series: cell-based, Human rhinovirus.
In a further series the test system is hRV-70. Nature of the series: Rhinovirus type 70 antiviral assay in Hela Rh cells, MTS readout. Type of series: cell-based, Human rhinovirus.
The nature of series [8]: in vitro. The settings on record: African green monkey.
The target in series [9] is purine nucleoside phosphorylase (Homo sapiens, UniProt P00491). Particulars: J. C. Sircar et al. J. Med. Chem. 1986, 29, 1804-1806; cited from earlier work.
Chain of purine nucleoside phosphorylase (P00491 whole entry, species assumed): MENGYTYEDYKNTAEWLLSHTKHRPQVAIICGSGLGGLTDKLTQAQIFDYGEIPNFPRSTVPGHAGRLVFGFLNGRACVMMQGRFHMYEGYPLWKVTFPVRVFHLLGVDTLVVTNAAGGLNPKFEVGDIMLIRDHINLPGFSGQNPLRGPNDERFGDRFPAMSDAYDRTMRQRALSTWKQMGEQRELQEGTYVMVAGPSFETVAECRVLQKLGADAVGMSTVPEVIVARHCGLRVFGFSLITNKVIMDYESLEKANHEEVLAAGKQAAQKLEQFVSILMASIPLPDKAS
The next series deals with Hela Rh cells. Description: Cytostatic/cytotoxic effect in Hela Rh cells (rhinovirus methodology, MTS).
Setting [10] is: Human immunodeficiency virus 1, IIIB, MT4, 120 h.

As for `COCCCNc1nc(N)nc2sc(-c3ccc(F)cc3)nc12` [Example 32, 2-(4-fluorophenyl)-N-7-(3-methoxypropyl)thiazolo[5,4-d]pyrimidine-5,7-diamine], the CC50 with MT-4 cells is more than 365 µM. For the same molecule, the EC50 with HIV-1 strain IIIB is more than 349 µM.

For `O=C(COc1ccc(Cl)cc1)N1CCN(c2ncnc3oc(-c4ccc(F)cc4)nc23)CC1` [Example 167, 2-(4-chlorophenoxy)-1-(4-(2-(4-fluorophenyl)oxazolo[5,4-d]pyrimidin-7-yl)piperazin-1-yl)ethanone], the CC50 in the series “in vitro [1]” was more than 150 µg/mL; in the series “in vitro [2]”, more than 50 µM; in the series “in vitro [3]” it was more than 50 µg/mL. Further, the EC50 was more than 50 µM in the series on HIV-2 strain (ROD); more than 50 µM in the series with HIV-1 strain IIIB (setting [10]); not below 50 µg/mL with poliovirus (PV type 2) (HeLa); more than 50 µg/mL with poliovirus (PV type 3) (HeLa); more than 50 µg/mL with poliovirus (PV type 3) (Vero); more than 50 µg/mL with poliovirus (PV type 1) (HeLa). Besides, the EC50 with poliovirus (PV type 1) (Vero) was more than 50 µg/mL. The “PV CC50” value in the series on Hela H cells was 31.91 µg/mL; in the series with Vero cells it was 105.69 µg/mL.

On to `Nc1nc(N2CCN(C(=O)COc3ccc(Cl)cc3)CC2)c2nc(-c3ccc(F)cc3)sc2n1` [Example 45, 1-(4-(5-amino-2-(4-fluorophenyl)thiazolo[5,4-d]pyrimidin-7-yl)piperazin-1-yl)-2-(4-chlorophenoxy)ethanone], for which the CC50 was 25.7 µg/mL (≈ 51.5 µM) in [4]; more than 150 µg/mL in the series “in vitro [1]”; 21.7 µg/mL (≈ 43.5 µM) in series [6]; 149 µM in the series “in vitro [2]”; 27.8 µg/mL (≈ 55.7 µM) in series [7]; more than 50 µg/mL in the series “in vitro [3]”. This molecule also yielded a CC50 in the series “in vitro [8]” of 28.7 µg/mL (≈ 57.5 µM). In addition, the EC50 was determined as 0.0736 µg/mL (≈ 0.148 µM) in the series on hRV-72 (Human rhinovirus sp., HRV72, HeLa Rh, methodology of example 451, read-out: EC50 (μg/ml) hRV-72); 0.0095 µg/mL (≈ 0.019 µM) with hRV-2 (Rhinovirus A, HRV2, HeLa Rh, methodology of example 451, read-out: EC50 (μg/ml) hRV-2); 0.011 µg/mL (≈ 0.022 µM) with hRV-29; 0.45 µM with HIV-2 strain (ROD); 0.198 µg/mL (≈ 0.397 µM) in the series with hRV-45 (Human rhinovirus sp., HRV45, HeLa Rh, methodology of example 451, read-out: EC50 (μg/ml) hRV-45); 0.73 µM in the series with HIV-1 strain IIIB (setting [10]). For the same molecule, the EC50 is 0.076 µg/mL (≈ 0.152 µM) in series [5]; 0.018 µg/mL (≈ 0.0361 µM) in the series with hRV-63 (Human rhinovirus sp., HRV63, HeLa Rh, methodology of example 451, read-out: EC50 (μg/ml) hRV-63); 0.0701 µg/mL (≈ 0.14 µM) with hRV-14 (Rhinovirus B, HRV14, HeLa Rh, methodology of example 451, read-out: EC50 (μg/ml) hRV-14); less than 0.023 µg/mL in the series on poliovirus (PV type 2) (HeLa); less than 0.023 µg/mL in the series with poliovirus (PV type 2) (Vero); 0.02 µg/mL (≈ 0.0401 µM) with hRV-59. Further, the EC50 was 0.0295 µg/mL (≈ 0.0591 µM) in the series with hRV-85 (Human rhinovirus sp., HRV85, HeLa Rh, methodology of example 451, read-out: EC50 (μg/ml) hRV-85); 0.0082 µg/mL (≈ 0.0164 µM) in the series with hRV-9 (Human rhinovirus sp., HRV9, HeLa Rh, methodology of example 451, read-out: EC50 (μg/ml) hRV-9); less than 0.023 µg/mL with poliovirus (PV type 3) (HeLa); less than 0.023 µg/mL with poliovirus (PV type 3) (Vero); 0.29 µg/mL (≈ 0.581 µM) in the series on coxsackie virus (CVA9); 0.0129 µg/mL (≈ 0.0259 µM) in the series with hRV-41 (Human rhinovirus sp., HRV41, HeLa Rh, methodology of example 451, read-out: EC50 (μg/ml) hRV-41). Further, the EC50 in the series on hRV-86 (Human rhinovirus sp., HRV86, HeLa Rh, methodology of example 451, read-out: EC50 (μg/ml) hRV-86) was 0.047 µg/mL (≈ 0.0942 µM); with poliovirus (PV type 1) (HeLa) it was less than 0.023 µg/mL; in the series with poliovirus (PV type 1) (Vero), less than 0.023 µg/mL; in the series on hRV-15 (Human rhinovirus sp., HRV15, HeLa Rh, methodology of example 451, read-out: EC50 (μg/ml) hRV-15), 0.017 µg/mL (≈ 0.0341 µM); in the series on hRV-42 (Human rhinovirus sp., HRV42, HeLa Rh, methodology of example 451, read-out: EC50 (μg/ml) hRV-42) it was 0.0142 µg/mL (≈ 0.0285 µM); in the series on enterovirus (EV71) it was 0.0695 µg/mL (≈ 0.139 µM). Also, the EC50 in the series with hRV-89 is 0.021 µg/mL (≈ 0.0421 µM); in the series on hRV-39 (Human rhinovirus sp., HRV39, HeLa Rh, methodology of example 451, read-out: EC50 (μg/ml) hRV-39) it was 0.012 µg/mL (≈ 0.024 µM); in the series on hRV-70 (Human rhinovirus sp., HRV70, HeLa Rh, methodology of example 451, read-out: EC50 (μg/ml) hRV-70) it was 0.0718 µg/mL (≈ 0.144 µM).

Consider `Nc1nc2sc(N)nc2c(=O)[nH]1` [2,5-Diaminothiazolo[5,4-d]pyrimidin-7(6H)-one], for which the “inhibitor of purine nucleoside phosphorylase” value in series [9] is “weak inhibitor”.

Turning to `Nc1nc(N2CCN(C(=O)COc3ccc(Br)cc3)CC2)c2sc(Cc3ccc(F)cc3)nc2n1` [Example 231, 1-(4-(5-amino-2-(4-fluorobenzyl)thiazolo[5,4-c]pyrimidin-7-yl)piperazin-1-yl)-2-(4-bromophenoxy)ethanone], in the series with hRV-72 (Hela Rh cells), the “hRV-72 EC50” value was “=4.95 μg/ml”. Also, in the series with hRV-2 (Hela Rh cells), the “hRV-2 EC50” value is “=0.51 μg/ml”. Also, the “hRV-45 EC50” value in the series on hRV-45 (Hela Rh cells) is listed as “=2.22 μg/ml”. Further, the “hRV-63 EC50” value in the series with hRV-63 (Hela Rh cells) was “=2.32 μg/ml”. Also, the “hRV-14 EC50” value in the series with hRV-14 (Hela Rh cells) is “=1.20 μg/ml”. Further, in the series on hRV-85 (Hela Rh cells), the “hRV-85 EC50” value is “=2.21 μg/ml”. Besides, the “hRV-9 EC50” value with hRV-9 (Hela Rh cells) is given as “=0.55 μg/ml”. In addition, the CC50 in the series with Hela Rh cells was more than 50.00 µg/mL. For the same molecule, in the series with hRV-41 (Hela Rh cells), the “hRV-41 EC50” value is on record as “=0.89 μg/ml”. For the same molecule, the “hRV-86 EC50” value with hRV-86 (Hela Rh cells) was “=4.42 μg/ml”. Further, the “hRV-15 EC50” value in the series on hRV-15 (Hela Rh cells) was “=1.38 μg/ml”. Further, the “hRV-42 EC50” value in the series on hRV-42 (Hela Rh cells) is “=1.26 μg/ml”. For the same molecule, the “hRV-39 EC50” value in the series with hRV-39 (Hela Rh cells) was “=0.34 μg/ml”. In addition, the “hRV-70 EC50” value in the series with hRV-70 (Hela Rh cells) was “=4.60 μg/ml”.
